Laboratory results taken from US10034827B2, “Skin care product and method of use” (The Procter & Gamble Company, priority 2014, dated 2018).
Residues, ends and D or L forms follow the SMILES beside them. *: point of attachment. Palmitoyl = CCCCCCCCCCCCCCCC(=O)*

Experiments:
[1] = Ex vivo skin penetration study (Franz cell, magnetic arrays moved above epidermis); format: in vitro ADME, human; conditions: arrays 1 (uni-directional, 27 mT) and 2 (bi-directional, overall 21 mT) of Table 1; 400 μg/ml in 50:50 PG:PB pH 4
Protocol: An ex vivo skin penetration study was conducted to compare the ability of different magnetic arrays to enhance penetration of Pal-KTTKS (SEQ ID NO: 1) into the epidermis of human skin. The dermis and epidermis of human skin samples obtained from donors aged 60-65 years were heat separated and the dermis discarded. 20 μL of a Pal-KTTKS (SEQ ID NO: 1) containing composition (400 μg/ml in 50:50 PG:PB at pH 4) was placed on human epidermis in Franz cell. Different magnetic arrays were positioned approximately 1.0 mm above the epidermis samples and moved over the samples at the speed a user might move a cosmetic applicator when applying a skin care product (e.g., about 20-25 cm/sec). Samples were taken and measured at 0, 1, 2, 4, 6, 8, 24 hours. […] For the bi-directional arrays herein, the “1st layer” refers to the layer closest to the skin-contacting surface of the applicator, and the “2nd layer” refers to the layer disposed on the side of the 1st layer opposite the side closest to the skin-contacting surface.

[2] = In vivo skin penetration study #1, Tape Stripping method (active magnetic array vs passive finger application); parameters: species or system human
Protocol: An in vivo skin penetration study was conducted to establish the effect of using a skin care product of the present invention by applying a skin care composition comprising Pal-KTTKS (SEQ ID NO: 1) with an applicator comprising a magnetic array. The study compared the penetration of the Pal-KTTKS (SEQ ID NO: 1) in combination with a variety of magnetic arrays (active application) to the penetration of Pal-KTTKS (SEQ ID NO: 1) applied with a finger (passive application). Penetration of Pal-KTTKS (SEQ ID NO: 1) in this example is determined according to the Tape Stripping method. In this example, the level of Pal-KTTKS (SEQ ID NO: 1) present in the extract from each tape strip was measured using HPLC and the results normalized to the protein level measured on the tape strip.
(§1) This method provides a suitable means of measuring the amount of skin care active present in skin, and comparing active versus passive application of the skin care active. Two identical rectangular areas of 15 cm^2 are marked on the volar forearms of volunteers. A measured dose (approximately 30 mg) of the Pal-KTTKS (SEQ ID NO: 1) formulation is applied to the delineated areas using a screw actuated syringe. Active application is carried out on one of the delineated areas using the three-quarter profile of a purpose made applicator (e.g., an applicator presenting one of the magnetic arrays set forth in Table 2). Passive application is accomplished on the other delineated area using the tip of a finger in a sweeping motion identical to that of the active application. The formulation is spread evenly across the entire delineated region using a sweeping motion with a fixed speed of approximately 23 cm/s to […]. The application period is 30 seconds during which time visual inspection is used to ensure even distribution and absorption of the formulation by skin. The application area is then left uncovered for a further 30 minutes to ensure complete absorption. Tape strip samples may be collected and/or analyzed immediately after the complete absorption is ensured or after a waiting period (e.g., after multiple applications of the formulation over multiple hours or days).
(§2) The tape stripping procedure is carried out using 10 commercial pre-cut 22.1 mm tape stripping adhesive discs (e.g., D-SQUAME brand tape strips, available from Cuderm Corporation, or equivalent) with an adhesive area of 3.8 cm^2. The 10 tape strips are applied sequentially to the same sampling site, which ideally enables each tape strip to obtain a sample from deeper within the stratum corneum than the tape strip that preceded it. A 22.1 mm diameter circular region is marked at the center of the application area. A tape stripping adhesive disc is placed over the marked area and even pressure applied using, for example, a neoprene roller, rolled ten times over the adhesive disc. The adhesive disc is removed from the skin surface in a single pulling motion using manual tweezers. To ensure even removal of the skin sample, subsequent discs are removed in a “north, south, east and west” orientation, which is within the skill of the ordinary artisan. Each adhesive disc is non-destructively analyzed for protein content using a suitable instrument (e.g., SquameScan™ 850 instrument commercially available from Heiland Electronics Wetzlar, Germany, or equivalent). The adhesive disc is then immediately placed into a glass vial containing extraction solvent in preparation for subsequent analysis. Solvent extractions are conducted on each tape strip using conventional extraction methods, which are well known to those of ordinary skill in the art, and measuring the amount of Pal-KTTKS (SEQ ID NO: 1) present in the extract, for example, by high performance liquid chromatography (“HPLC”) and/or mass spectrometry.
The procedure is repeated for the remaining nine strips. An additional strip is obtained from outside the area of application of the skin care formulation to serve as a blank sample. […]

[3] = In vivo skin penetration study #2, Tape Stripping method (magnetic vs non-magnetic applicator); parameters: species or system human
Protocol: as §1, §2
The procedure is repeated for the remaining nine strips. An additional strip is obtained from outside the area of application of the skin care formulation to serve as a blank sample. The amount of active is normalized to the amount of protein measured. […]

[4] = Diamagnetic susceptibility; format: physicochemical; conditions: dimensionless
[5] = magnetic applicator with array #8, average across all 10 test sites, in ng (unit assumed)
[6] = non-magnetic applicator, average across all 10 test sites, in ng (unit assumed)

Enhancement (active/passive) ([2]; array #4, tape strips 2-4, from average values of Table 11): 1.54 | Enhancement (active/passive) ([2]; array #4, tape strips 5-7, from average values of Table 11): 2.18 | Enhancement (active/passive) ([2]; array #4, tape strips 8-10, from average values of Table 11): 2.98 | Enhancement (active/passive) ([2]; array #9, tape strips 2-4, from average values of Table 9): 4.19 | Enhancement (active/passive) ([2]; array #9, tape strips 5-7, from average values of Table 9): 2.38 | Enhancement (active/passive) ([2]; array #9, tape strips 8-10, from average values of Table 9): 3.78 | Enhancement value Strips 2-10 (active/passive), Avg ([3]; array #8 vs non-magnetic applicator, average of the enhancement values of all test sites): 4 | Sum 2-10 of Pal-KTTKS recovered, active application, Avg [3, 5]: 42.02 | Sum 6-10 of Pal-KTTKS recovered, active application, Avg [3, 5]: 22.74 | Sum 2-10 of Pal-KTTKS recovered, passive application, Avg [3, 6]: 20.55 | Sum 6-10 of Pal-KTTKS recovered, passive application, Avg [3, 6]: 10.01 | diamagnetic susceptibility [4]: approximately −519
SMILES: CCCCCCCCCCCCCCCC(=O)N[C@@H](CCCCN)C(=O)N[C@H](C(=O)N[C@H](C(=O)N[C@@H](CCCCN)C(=O)N[C@@H](CO)C(=O)O)[C@@H](C)O)[C@@H](C)O [Pal-KTTKS, palmitoyl-lysine-threonine-threonine-lysine-serine] (Palmitoyl-KTTKS-OH; C-terminus assumed)
penetration enhancement of Pal-KTTKS into human epidermis [1]: demonstrated the best penetration enhancement | penetration enhancement compared with other magnetic arrays ([2]; magnetic array #4 (uni-directional)): better penetration enhancement than some of the other magnetic arrays tested | penetration enhancement compared with other magnetic arrays ([2]; magnetic array #9 (bi-directional)): better penetration enhancement than some of the other magnetic arrays tested
